The source of these data is US9549921B2, “Heterocyclic compounds and methods of use thereof for the treatment of hepatitis C” (priority 2014, dated 2017).

Like-named read-outs stand apart in the source and are kept apart here.

One assay concerns HCV replicon genotype 1b. Kind of assay: HCV replicon assay, genotype 1b (cell ELISA for NS3/4A). Format: cell-based, hepatitis C virus. In a few lines: (§1)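 Readout is NS3/4A protein level from an antibody-based cell ELISA, serving as an indirect measure of replicon RNA; IC50 fitted with a four-parameter function relative to DMSO control. Replicon cells, kept under G418 beforehand, were plated with serial compound dilutions minus G418 for 96 hours.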
For orientation: In antiviral work, replicon cells carry a viral genome segment that copies itself.

The next assay concerns HCV replicon genotype 1a. Kind of assay: HCV replicon assay, genotype 1a (cell ELISA for NS3/4A). Format: cell-based, hepatitis C virus. An outline of the steps:
as §1

[1] abbreviates: read-out: 1b IC50, HCV genotype 1b replicon cells, 96 hours incubation, NS3/4A ELISA readout, % of DMSO control.
Where [2] appears, read: read-out: 1a IC50, HCV genotype 1a replicon cells, 96 hours incubation, NS3/4A ELISA readout, % of DMSO control.
Where [3] appears, read: Hepatitis C virus, 96 h, read-out: 1b IC50 (nM), HCV genotype 1b replicon cells, 96 hours incubation, NS3/4A ELISA readout, % of DMSO control.
Setting [4] is: Hepatitis C virus, 96 h, read-out: 1a IC50 (nM), HCV genotype 1a replicon cells, 96 hours incubation, NS3/4A ELISA readout, % of DMSO control.

With `CNC(=O)c1c(-c2ccc(F)cc2)oc2cc(N(C)S(C)(=O)=O)c([C@@H]3CCN(C(=O)c4cc5c(F)cccc5n4C)C3)cc12` (single isomer, unassigned) [Example 15, 5-(1-(4-fluoro-1-methyl-1H-indole-2-carbonyl)pyrrolidin-3-yl)-2-(4-fluorophenyl)-N-methyl-6-(N-methylmethylsulfonamido)benzofuran-3-carboxamide], the IC50 in the assay with HCV replicon genotype 1b (setting [1]) turned out to be 11.2 nM; with HCV replicon genotype 1a (setting [2]), 125 nM.
In the case of `CNC(=O)c1c(-c2ccc(F)cc2)oc2cc(N(C)S(C)(=O)=O)c([C@H]3CCCN(C(=O)c4cc5ccccn5c4)C3)cc12` [Example 106, 2-(4-fluorophenyl)-5-[(3R)-1-(indolizin-2-ylcarbonyl)piperidin-3-yl]-N-methyl-6-[methyl(methylsulfonyl)amino]-1-benzofuran-3-carboxamide], the IC50 came to 51.5 nM in the assay with HCV replicon genotype 1b (setting [3]) and 123 nM with HCV replicon genotype 1a (setting [4]).
`CNC(=O)c1c(-c2ccc(F)cc2)oc2cc(N(C)S(C)(=O)=O)c([C@@H]3CCCN(S(=O)(=O)c4cnc5n4CCCCC5)C3)cc12` [Example 125, 2-(4-fluorophenyl)-N-methyl-6-[methyl(methylsulfonyl)amino]-5-[(3S)-1-(6,7,8,9-tetrahydro-5H-imidazo[1,2-a]azepin-3-ylsulfonyl)piperidin-3-yl]-1-benzofuran-3-carboxamide]: the IC50 was determined as 67.6 nM with HCV replicon genotype 1b (setting [3]) and 172 nM in the assay with HCV replicon genotype 1a (setting [4]).
For `CNC(=O)c1c(-c2ccc(F)cc2)oc2cc(N(C)S(C)(=O)=O)c([C@H]3CCCN(S(=O)(=O)c4ccc(F)cc4)C3)cc12` [Example 131, 2-(4-fluorophenyl)-5-{(3R)-1-[(4-fluorophenyl)sulfonyl]piperidin-3-yl}-N-methyl-6-[methyl(methylsulfonyl)amino]-1-benzofuran-3-carboxamide], the IC50 in the assay with HCV replicon genotype 1b (setting [3]) was determined as 88.9 nM; with HCV replicon genotype 1a (setting [4]) it was 176 nM.
Consider `CNC(=O)c1c(-c2ccc(F)cc2)oc2cc(N(C)S(C)(=O)=O)c([C@@H]3CCCN(C(=O)c4cc5ncccc5[nH]4)C3)cc12` [Example 65, 2-(4-fluorophenyl)-N-methyl-6-[methyl(methylsulfonyl)amino]-5-[1-(1H-pyrrolo[3,2-b]pyridin-2-ylcarbonyl)piperidin-3-yl]-1-benzofuran-3-carboxamide], for which the IC50 in the assay with HCV replicon genotype 1b (setting [3]) is 46.3 nM; in the assay with HCV replicon genotype 1a (setting [4]), 140 nM.
Take `CNC(=O)c1c(-c2ccc(F)cc2)oc2cc(N(C)S(C)(=O)=O)c([C@H]3CCCN(C(=O)c4nc5ccc(F)cc5s4)C3)cc12` [Example 93, 5-{(3R)-1-[(6-fluoro-1,3-benzothiazol-2-yl)carbonyl]piperidin-3-yl}-2-(4-fluorophenyl)-N-methyl-6-[methyl(methylsulfonyl)amino]-1-benzofuran-3-carboxamide]: the IC50 in the assay on HCV replicon genotype 1b (setting [3]) came to 102 nM; with HCV replicon genotype 1a (setting [4]), 181 nM.
As to `CNC(=O)c1c(-c2ccc(F)cc2)oc2cc(N(C)S(C)(=O)=O)c([C@H]3CCCN(S(=O)(=O)c4ccccc4)C3)cc12` [Example 134, 2-(4-fluorophenyl)-N-methyl-6-[methyl(methylsulfonyl)amino]-5-[(3R)-1-(phenylsulfonyl)piperidin-3-yl]-1-benzofuran-3-carboxamide], the results for the IC50 in the assay with HCV replicon genotype 1b (setting [3]) and in the assay on HCV replicon genotype 1a (setting [4]) were 58.3 nM and 85.9 nM, respectively.
On to `CNC(=O)c1c(-c2ccc(F)cc2)oc2cc(N(C)S(C)(=O)=O)c([C@H]3CCCN(S(=O)(=O)C4CCCC4)C3)cc12` [Example 135, 5-[(3R)-1-(cyclopentylsulfonyl)piperidin-3-yl]-2-(4-fluorophenyl)-N-methyl-6-[methyl(methylsulfonyl)amino]-1-benzofuran-3-carboxamide], for which the values for the IC50 with HCV replicon genotype 1b (setting [3]) and in the assay with HCV replicon genotype 1a (setting [4]) were 45.6 nM and 80.4 nM, respectively.
The corresponding values for `CNC(=O)c1c(-c2ccc(F)cc2)oc2cc(N(C)S(C)(=O)=O)c([C@H]3CCCN(S(=O)(=O)c4cccc(F)c4)C3)cc12` [Example 130, 2-(4-fluorophenyl)-5-{(3R)-1-[(3-fluorophenyl)sulfonyl]piperidin-3-yl}-N-methyl-6-[methyl(methylsulfonyl)amino]-1-benzofuran-3-carboxamide] are 95.5 nM and 174 nM.
As to `CNC(=O)c1c(-c2ccc(F)cc2)oc2cc(N(C)S(C)(=O)=O)c([C@@H]3CCCN(C(=O)C4CC4c4ccccn4)C3)cc12` (stereo partly drawn) [Example 60, 2-(4-fluorophenyl)-N-methyl-6-[methyl(methylsulfonyl)amino]-5-{1-[(2-pyridin-2-ylcyclopropyl)carbonyl]piperidin-3-yl}-1-benzofuran-3-carboxamide], the IC50 amounted to 40.3 nM in the assay on HCV replicon genotype 1b (setting [1]) and 116 nM in the assay on HCV replicon genotype 1a (setting [2]).
In the case of `CNC(=O)c1c(-c2ccc(F)cc2)oc2cc(N(C)S(C)(=O)=O)c([C@H]3CCCN(C(=O)[C@@H](NC(=O)OC(C)(C)C)c4ccccc4F)C3)cc12` [Example 94, tert-butyl {(1S)-1-(2-fluorophenyl)-2-[(3R)-3-{2-(4-fluorophenyl)-3-(methylcarbamoyl)-6-[methyl(methylsulfonyl)amino]-1-benzofuran-5-yl}piperidin-1-yl]-2-oxoethyl}carbamate], the IC50 came out at 168 nM in the assay on HCV replicon genotype 1b (setting [3]) and 300 nM in the assay on HCV replicon genotype 1a (setting [4]).
As for `CNC(=O)c1c(-c2ccc(F)cc2)oc2cc(N(C)S(C)(=O)=O)c([C@H]3CCCN(C(=O)c4[nH]c5c(F)cccc5c4C)C3)cc12` [Example 38, (R)-5-(1-(7-fluoro-3-methyl-1H-indole-2-carbonyl)piperidin-3-yl)-2-(4-fluorophenyl)-N-methyl-6-(N-methylmethylsulfonamido)benzofuran-3-carboxamide], the IC50 came out at 116 nM in the assay on HCV replicon genotype 1b (setting [3]) and 277 nM in the assay on HCV replicon genotype 1a (setting [4]).
For `CNC(=O)c1c(-c2ccc(F)cc2)oc2cc(N(C)S(C)(=O)=O)c([C@@H]3CCCN(C(=O)c4cc5cccc(OC)c5[nH]4)C3)cc12` (single isomer, unassigned) [Example 41, 2-(4-fluorophenyl)-5-(1-(7-methoxy-1H-indole-2-carbonyl)piperidin-3-yl)-N-methyl-6-(N-methylmethylsulfonamido)benzofuran-3-carboxamide], the IC50 was found to be 13.5 nM with HCV replicon genotype 1b (setting [3]) and 30.7 nM with HCV replicon genotype 1a (setting [2]).
As to `CNC(=O)c1c(-c2ccc(F)cc2)oc2cc(N(C)S(C)(=O)=O)c([C@@H]3CCCN(c4nc5c(C#N)cccc5o4)C3)cc12` [Example 5, (S)-5-(1-(4-cyanobenzo[d]oxazol-2-yl)piperidin-3-yl)-2-(4-fluorophenyl)-N-methyl-6-(N-methylmethylsulfonamido)benzofuran-3-carboxamide], the IC50 was found to be 19.3 nM in the assay on HCV replicon genotype 1b (setting [3]) and 53.7 nM with HCV replicon genotype 1a (setting [4]).
On to `CNC(=O)c1c(-c2ccc(F)cc2)oc2cc(N(C)S(C)(=O)=O)c([C@@H]3CCCN(C(=O)[C@H](N)c4ccccc4F)C3)cc12` (single isomer, unassigned) [Example 30], for which the IC50 in the assay on HCV replicon genotype 1b (setting [1]) was 215 nM; in the assay on HCV replicon genotype 1a (setting [2]) it was 122 nM.
As to `CNC(=O)c1c(-c2ccc(F)cc2)oc2cc(N(C)S(C)(=O)=O)c([C@@H]3CCCN(C(=O)c4nc5ccc(F)cc5[nH]4)C3)cc12` [Example 76, 5-{1-[(6-fluoro-1H-benzimidazol-2-yl)carbonyl]piperidin-3-yl}-2-(4-fluorophenyl)-N-methyl-6-[methyl(methylsulfonyl)amino]-1-benzofuran-3-carboxamide], the results for the IC50 with HCV replicon genotype 1b (setting [3]) and in the assay with HCV replicon genotype 1a (setting [4]) were 9.96 nM and 49.4 nM, respectively.
For `CNC(=O)c1c(-c2ccc(F)cc2)oc2cc(N(C)S(C)(=O)=O)c([C@H]3CCCN(C(=O)c4nn(CC5CC5)c5ccccc45)C3)cc12` [Example 100, 5-[(3R)-1-{[1-(cyclopropylmethyl)-1H-indazol-3-yl]carbonyl}piperidin-3-yl]-2-(4-fluorophenyl)-N-methyl-6-[methyl(methylsulfonyl)amino]-1-benzofuran-3-carboxamide], the IC50 with HCV replicon genotype 1b (setting [3]) was determined as 20.4 nM; with HCV replicon genotype 1a (setting [4]), 65 nM.
For `CNC(=O)c1c(-c2ccc(F)cc2)oc2cc(N(C)S(C)(=O)=O)c([C@H]3CN(C(=O)c4cc5c(F)cccc5n4C)CCO3)cc12` (single isomer, unassigned) [Example 8, 5-(4-(4-fluoro-1-methyl-1H-indole-2-carbonyl)morpholin-2-yl)-2-(4-fluorophenyl)-N-methyl-6-(N-methylmethylsulfonamido)benzofuran-3-carboxamide], the IC50 with HCV replicon genotype 1b (setting [3]) came to 36.9 nM; with HCV replicon genotype 1a (setting [4]), 28.2 nM.
In the case of `CNC(=O)c1c(-c2ccc(F)cc2)oc2cc(N(C)S(C)(=O)=O)c([C@H]3CCCN(C(=O)c4cc5cc(C(F)(F)F)ccc5n4C)C3)cc12` [Example 89, 2-(4-fluorophenyl)-N-methyl-6-[methyl(methylsulfonyl)amino]-5-[(3R)-1-{[1-methyl-5-(trifluoromethyl)-1H-indol-2-yl]carbonyl}piperidin-3-yl]-1-benzofuran-3-carboxamide], the IC50 in the assay with HCV replicon genotype 1b (setting [3]) is 45.2 nM; in the assay with HCV replicon genotype 1a (setting [4]), 84.4 nM.
For the compound `CNC(=O)c1c(-c2ccc(F)cc2)oc2cc(N(C)S(C)(=O)=O)c([C@@H]3CCCN(c4nc5ccccc5o4)C3)cc12` (single isomer, unassigned) [Example 48, 5-(1-(benzo[d]oxazol-2-yl)piperidin-3-yl)-2-(4-fluorophenyl)-N-methyl-6-(N-methylmethylsulfonamido)benzofuran-3-carboxamide], the IC50 in the assay with HCV replicon genotype 1b (setting [1]) came out at 24.8 nM; in the assay on HCV replicon genotype 1a (setting [2]), 40.2 nM.
Consider `CNC(=O)c1c(-c2ccc(F)cc2)oc2cc(N(C)S(C)(=O)=O)c([C@@H]3CCCN(C(=O)c4cc5ccccc5[nH]4)C3)cc12` (single isomer, unassigned) [Example 21, 5-(1-(1H-indole-2-carbonyl)piperidin-3-yl)-2-(4-fluorophenyl)-N-methyl-6-(N-methylmethylsulfonamido)benzofuran-3-carboxamide], for which the IC50 was found to be 9.96 nM with HCV replicon genotype 1b (setting [3]) and 16.2 nM with HCV replicon genotype 1a (setting [2]).
